We go through 2 molecules from patent US12043602B2, “Fendiline derivatives” (The Board of Regents of the University of Texas System, priority 2019, dated 2024).

The target of data set [1] is T1, mGFP-K-RASG12V (Homo sapiens (Human), UniProt P01116, G12V). As to the kind of experiment: K-Ras mislocalization assay (confocal microscopy, Manders coefficient). It is filed as cell-based. Further details: key to Emax: Manders coefficient: fraction of mCherry-CAAX co-localizing with GFP-K-Ras. The settings on record: MDCK cells; for Emax: maximal effect, Manders coefficient. The procedure, abridged:
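MDCK cells stably co-expressing mGFP-K-RASG12V and mCherry-CAAX (endomembrane marker) treated with compound or 0.1% DMSO for 48 h, fixed in 4% paraformaldehyde, imaged by confocal microscopy. Mislocalization quantified as the fraction of mCherry-CAAX co-localizing with mGFP-K-RASG12V (Manders coefficient) after 8-bit thresholding.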

In data set [2] the test system is BxPC-3 (WT) pancreatic tumor cells. In words: CyQUANT proliferation assay. On the set-up: key to IC50 proliferation BxPC-3 (WT): NE—Not efficacious. The format is cell-based. The protocol: (§1) Madine Darby Canine Kidney epithelial cells (MDCK) stably co-expressing mGFP-tagged full length oncogenic mutant K-Ras (GFP—K-RASG12V) or mGFP-LactC2 (peptide probe for phosphatidylserine) and mCherry-tagged to the amino acids 179-189 of H-RasC181S, C184S (mCherry-CAAX, localizes primarily to endomembranes) were grown in DMEM-high glucose/sodium pyruvate/10% FBS. The medium was supplemented with 1× Penicillin/Streptomycin for fluorescence microscopy assays, to avoid any microbial contamination from the test compounds added. KLE and Hec50 cells were maintained in DMEM-F-12 medium supplemented with 10% FBS. Hec-1A and Hec-1B cells were grown in McCoy's 5a medium supplemented with 10% FBS. ESS-1 cells were grown in RPMI 1640 medium supplemented with 20% FBS. MPanc96 cells were grown in DMEM supplemented with 10% FBS, MiaPaCa-2 cells in DMEM supplemented with 10% FBS and 2.5% horse serum and all other cell lines were grown in RPMI 1640 supplemented with 10% FBS. All cancer cell media were supplemented with ×Penicillin/Streptomycin. All cell lines were grown at 37° C. with 5% CO2.
(§2) Cells were seeded in 96-well plates. After 24 h, fresh growth medium supplemented with 0.1% vehicle (DMSO), or various concentrations of drugs was added and cells were grown for 72 h. Cell numbers were quantified using the CyQUANT® Cell Proliferation Assay Kit (Molecular Probes, Life Technologies), according to the manufacturer's protocol. Fluorescence measurement was used as a measure of live cell number.

In data set [3] the test system is MiaPaCa-2 (Mut) pancreatic tumor cells. In words: CyQUANT proliferation assay. The format is cell-based. The settings on record: Table 11, pancreatic; read-out: IC50 (μM) MiaPaCa-2 (Mut). On the procedure: as §1, §2
The subject of data set [4] is MOH (Mut) pancreatic tumor cells. As to the kind of experiment: CyQUANT proliferation assay. It is filed as cell-based. Further details: key to IC50 proliferation MOH (Mut): NE—Not efficacious. On the procedure:
as §1, §2

The subject of data set [5] is MPanc96 (Mut) pancreatic tumor cells. In words: CyQUANT proliferation assay. The format is cell-based. The settings on record: Table 11, pancreatic; read-out: IC50 (μM) MPanc96 (Mut). The protocol: as §1, §2
Data set [6] relates to NCI H1975 (WT) lung tumor cells. In words: CyQUANT proliferation assay. It is filed as cell-based. The settings on record: Table 11, lung. On the procedure: as §1, §2
The subject of data set [7] is NCI H522 (WT) lung tumor cells. In words: CyQUANT proliferation assay. The format is cell-based. Further details: key to IC50 proliferation NCI H522 (WT): NE—Not efficacious. The protocol: as §1, §2
Data set [8] relates to CaCO-2 (WT) colon tumor cells. As to the kind of experiment: CyQUANT proliferation assay. The settings on record: Table 11, colon; read-out: IC50 (μM) Caco-2 (WT). It is filed as cell-based. On the procedure:
as §1, §2

Data set [9] concerns Hec1A (Mut) endometrial tumor cells. As to the kind of experiment: CyQUANT proliferation assay. The format is cell-based. The settings on record: Table 11, endometrial; read-out: IC50 (μM) Hec1A (Mut). On the procedure:
as §1, §2

Data set [10] deals with Hec1B (Mut) endometrial tumor cells. As to the kind of experiment: CyQUANT proliferation assay. The format is cell-based. The settings on record: Table 11, endometrial; read-out: IC50 (μM) Hec1B (Mut). The protocol: as §1, §2
Data set [11] has as its system NCI-H1299 (WT) lung tumor cells. As to the kind of experiment: CyQUANT proliferation assay. The format is cell-based. The settings on record: Table 11, lung; read-out: IC50 (μM) NCI H1299 (WT). The protocol:
as §1, §2

Data set [12] concerns SK-CO-1 (Mut) colon tumor cells. In words: CyQUANT proliferation assay. The settings on record: Table 11, colon; read-out: IC50 (μM) SK-CO-1 (Mut). The format is cell-based. The protocol:
as §1, §2

Data set [13] has as its system NCI-H23 (Mut) lung tumor cells. In words: CyQUANT proliferation assay. Further details: key to IC50 proliferation NCI-H23 (Mut): NE—Not efficacious. It is filed as cell-based. On the procedure: as §1, §2
The subject of data set [14] is Ishikawa (WT) endometrial tumor cells. In words: CyQUANT proliferation assay. Further details: key to IC50 proliferation Ishikawa (WT): NE—Not efficacious. The format is cell-based. The protocol:
as §1, §2

In data set [15] the target is T1, mGFP-K-RASG12V. The settings on record: versus compound 6; background statement; cited from earlier work.
The test system of data set [16] is mutant KRAS expressing cancer cells. The settings on record: at 30 μM; background statement; cited from earlier work.
Data set [17] has as its system MDCK cells co-expressing GFP-K-RASG12V and mCherry-CAAX. As to the kind of experiment: Cytotoxicity in mislocalization screen (death of all cells in well). The settings on record: drug caused death of all cells in well at 30 μM.
Data set [18] concerns HPAC (Mut) pancreatic tumor cells. In words: CyQUANT proliferation assay. The format is cell-based. The settings on record: 72 h. On the set-up: key to IC50 proliferation HPAC (Mut): NE—Not efficacious. The protocol:
as §1, §2

The test system of data set [19] is H1925 (WT) lung tumor cells. In words: CyQUANT proliferation assay. The settings on record: 72 h. Further details: key: NE—Not efficacious. It is filed as cell-based. The protocol: as §1, §2
The test system of data set [20] is KLE (WT) endometrial tumor cells. As to the kind of experiment: CyQUANT proliferation assay. The settings on record: 72 h. The format is cell-based. On the set-up: key: NE—Not efficacious. On the procedure:
as §1, §2

Data set [21] relates to SW1116 (Mut) colon tumor cells. As to the kind of experiment: CyQUANT proliferation assay. The settings on record: 72 h. The format is cell-based. Further details: key: NE—Not efficacious. On the procedure: as §1, §2

By IC50 is commonly meant the midpoint of a concentration-inhibition curve. Usually EC50 stands for the concentration at which the effect is half-maximal.

Where only a bound is given, the exact number is not on record here.

On to `COc1ccc([C@@H](C)N(CC=C(c2ccccc2)c2ccccc2)CC=C(c2ccccc2)c2ccccc2)cc1` [Compound 7, reference compound], for which the IC50 on mGFP-K-RASG12V [1] (48 h treatment, read-out: IC50 (μM), KRASG12V mislocalization) was 0.5 µM; in data set [2] (Table 11, pancreatic, read-out: IC50 (μM) BxPC-3 (WT)) it was more than 30 µM; in data set [3], more than 30 µM; in data set [4] (Table 11, pancreatic, read-out: IC50 (μM) MOH (Mut)) it was more than 30 µM; in data set [5], more than 30 µM; in data set [6], more than 30 µM. Besides, the IC50 in [7] (Table 11, lung, read-out: IC50 (μM) NCI H522 (WT)) is more than 30 µM; in [8], more than 30 µM; in data set [9], more than 30 µM; in data set [10], more than 30 µM; in [11] it was more than 30 µM; in data set [12], more than 30 µM. For the same molecule, the IC50 in data set [13] (Table 11, lung, read-out: IC50 (μM) NCI H23 (Mut)) is more than 30 µM; in data set [14] (Table 11, endometrial, read-out: IC50 (μM) Ishikawa (WT)), more than 30 µM. This molecule had an Emax at mGFP-K-RASG12V [1] (48 h) of 0.74 ± 0.03. The fold increased potency at mGFP-K-RASG12V [15] was 10 fold. Further, in data set [16], the “capability to kill mutant KRAS expressing cancer cells” value is reported as “no capability to kill”. In addition, the “Cytotoxic at 30 μM” value in [17] is “did not show any cytotoxic and No”.
`CN1CCN(CCN(CC=C(c2ccccc2)c2ccccc2)[C@@H]2C[C@H]2c2ccccc2)CC1` [NY0590, (1R,2S)-N-(3,3-diphenylallyl)-N-(2-(4-methylpiperazin-1-yl)ethyl)-2-phenylcyclopropan-1-amine]: the EC50 at mGFP-K-RASG12V [1] (batch 4 compounds, 48 h, title calls it IC50, read-out: EC50) was 0.945 µM. Besides, the Emax at mGFP-K-RASG12V [1] (48 h) was 0.893. Further, in data set [2] (72 h), the “IC50 proliferation BxPC-3 (WT)” value is “NE”. The “IC50 proliferation MOH (Mut)” value in data set [4] (72 h) is “NE”. Besides, the “IC50 proliferation HPAC (Mut)” value in data set [18] is on record as “NE”. Also, the “IC50 proliferation NCI H522 (WT)” value in data set [7] (72 h) was “NE”. For the same molecule, in [13] (72 h), the “IC50 proliferation NCI-H23 (Mut)” value is “NE”. Further, the “Potency proliferation H1925 (WT)” value in data set [19] is “NE”. Also, the “IC50 proliferation KLE (WT)” value in data set [20] is recorded as “NE”. In addition, in data set [21], the “Potency proliferation SW1116 (Mut)” value is on record as “NE”. Further, the “IC50 proliferation Ishikawa (WT)” value in [14] (72 h) is reported as “NE”. For the same molecule, the “Cytotoxic at 30 μM” value in data set [17] is on record as “Yes”.
